Consider one compound from ChEMBL document CHEMBL5678816, “A Next-Generation TRK Kinase Inhibitor Overcomes Acquired Resistance to Prior TRK Kinase Inhibition in Patients with TRK Fusion-Positive Solid Tumors” (Cancer Discov, 2017).

Data set [1] is described as follows: Inhibition of N-terminal 3FLAG-tagged ETV6-TRKC G696A mutant (unknown origin) expressed in NIH3T3 cells assessed as ERK1/2 phosphorylation incubated for 1 hrs by flow cytometric analysis. The data set is classed as cell-based, Homo sapiens. A general note: Flow cytometry measures light scatter and fluorescence of single cells or particles in a stream.
Data set [2] concerns NIH3T3. In words: In vivo inhibition of […] in nu/nu NCr mouse implanted with mouse NIH3T3 cells harboring extracellular domain deleted […] assessed as reduction in […] phosphorylation at 10 to 100 mg/kg, po administered twice daily for 3 days and measured after 2 hrs post last dose by ELISA. The data set is classed as functional, organism-based. Particulars: dose 10-100 mg/kg, time 3.0 day. (In an ELISA, binding on a coated surface is turned into a signal by an enzyme label.)

Data set [3] in a line: Toxicity in nu/nu NCr mouse xenografted with human KM12 cells harboring TPM3-TRKA fusion protein assessed as body weight loss at 60 mg/kg, po administered once daily for 11 days relative to control. The data set is classed as organism-based. Conditions: in vivo, 264 h, time 11 day. In general terms: Xenograft models place foreign cells or tissue in a host animal.
For another data set, the system named is KM12. In words: Antitumor activity against human KM12 cells harboring TPM3-TRKA fusion protein xenografted in nu/nu NCr mouse assessed as inhibition of tumor growth at 60 mg/kg, po administered once daily for 11 days. The data set is classed as functional, organism-based. Conditions: time 11.0 day.
The nature of data set [4]: Inhibition of N-terminal 3FLAG-tagged ETV6-TRKC G623R mutant (unknown origin) expressed in NIH3T3 cells assessed as ERK1/2 phosphorylation incubated for 1 hrs by flow cytometric analysis. The data set is classed as cell-based, Homo sapiens.
The test system of data set [5] is NIH3T3. Put plainly: Antitumor activity against mouse NIH3T3 cells harboring extracellular domain deleted TRKA implanted in nu/nu NCr mouse assessed as inhibition of tumor growth at 60 mg/kg, po administered once daily for 10 days. The data set is classed as functional, organism-based. Particulars: time 10.0 day.
Data set [6] in a line: Toxicity in nu/nu NCr mouse implanted with mouse NIH3T3 cells harboring extracellular domain deleted TRKA assessed as body weight loss at 60 mg/kg, po administered once daily for 10 days relative to control. The data set is classed as organism-based. Particulars: in vivo, 240 h, time 10 day.
Data set [7] can be described thus: Inhibition of human extracellular domain deleted TRKA G667S mutant expressed in mouse NIH3T3 cells assessed as reduction in TRKA phosphorylation incubated for 1 hrs by ELISA. The data set is classed as cell-based. Conditions: NIH3T3, 1 h.
Data set [8] is described as follows: Inhibition of N-terminal 3FLAG-tagged wild type ETV6-TRKC (unknown origin) expressed in NIH3T3 cells assessed as ERK1/2 phosphorylation incubated for 1 hrs by flow cytometric analysis. The data set is classed as cell-based, Homo sapiens.
For data set [9], the system named is NIH3T3. Put plainly: In vivo inhibition of […] in nu/nu NCr mouse implanted with mouse NIH3T3 cells harboring extracellular domain deleted […] assessed as reduction in […] phosphorylation at 60 mg/kg, po administered once daily for 3 days and measured after 2 hrs post last dose by ELISA. The data set is classed as functional, organism-based. Particulars: time 3.0 day.

A short description of data set [10]: Toxicity in nu/nu NCr mouse implanted with mouse NIH3T3 cells harboring extracellular domain deleted TRKA G595R mutant assessed as body weight loss at 60 mg/kg, po administered once daily for 12 days relative to control. The data set is classed as organism-based. Conditions: in vivo, 288 h, time 12 day.
A short description of data set [11]: Inhibition of N-terminal 6His-tagged TRKC G696A mutant (506 to 829 residues) (unknown origin) expressed in Escherichia coli incubated for 60 mins by [gamma-33P]-ATP based TopCount NXT liquid scintillation assay. More on the design: species or system Homo sapiens.
A short description of data set [12]: Inhibition of human extracellular domain deleted TRKA V573M mutant expressed in mouse NIH3T3 cells assessed as reduction in TRKA phosphorylation incubated for 1 hrs by ELISA. The data set is classed as cell-based. Conditions: NIH3T3, 1 h.

Active and inactive are the calls of the source. The rule behind the calls is not given here.

With `O=C(Nc1cnn2ccc(N3CCC[C@@H]3c3cc(F)ccc3F)nc12)N1CC[C@H](O)C1` [LAROTRECTINIB], the IC50 was 0.172 µM in data set [1]; over 10 µM in [4]; 0.07 µM in data set [7]; 0.0188 µM in [8]; 0.0045 µM in data set [11]; 1.02 µM in [12]. Besides, the inhibition result with NIH3T3 [2] and in the data set with NIH3T3 [9] was “Active” throughout. The Activity in data set [3], in data set [6] and in data set [10] was under 5% each time. Moreover, the outcome in the data set with KM12 and in the data set on NIH3T3 [5] was Active.

Broadly, the IC50 is the concentration that gives 50% inhibition.
